From patent US10308639B2, “Phosphatidylinositol 3-kinase inhibitors” (Gilead Sciences, Inc., priority 2014, dated 2019)

Key:
Format in all cases: biochemical
PI3Kβ = molecular target: T1, PI3Kβ (Homo sapiens, UniProt P42338); assay: TR-FRET enzymatic activity assay, PI3Kβ; settings: Table 2a; same assay
T1 construct: made in house

PI3Kδ = molecular target: T2, PI3Kδ (Homo sapiens, UniProt O00329); assay: TR-FRET enzymatic activity assay, PI3Kδ; settings: Table 2a; same assay
T2 construct: made in house
T2 sequence (O00329 whole entry): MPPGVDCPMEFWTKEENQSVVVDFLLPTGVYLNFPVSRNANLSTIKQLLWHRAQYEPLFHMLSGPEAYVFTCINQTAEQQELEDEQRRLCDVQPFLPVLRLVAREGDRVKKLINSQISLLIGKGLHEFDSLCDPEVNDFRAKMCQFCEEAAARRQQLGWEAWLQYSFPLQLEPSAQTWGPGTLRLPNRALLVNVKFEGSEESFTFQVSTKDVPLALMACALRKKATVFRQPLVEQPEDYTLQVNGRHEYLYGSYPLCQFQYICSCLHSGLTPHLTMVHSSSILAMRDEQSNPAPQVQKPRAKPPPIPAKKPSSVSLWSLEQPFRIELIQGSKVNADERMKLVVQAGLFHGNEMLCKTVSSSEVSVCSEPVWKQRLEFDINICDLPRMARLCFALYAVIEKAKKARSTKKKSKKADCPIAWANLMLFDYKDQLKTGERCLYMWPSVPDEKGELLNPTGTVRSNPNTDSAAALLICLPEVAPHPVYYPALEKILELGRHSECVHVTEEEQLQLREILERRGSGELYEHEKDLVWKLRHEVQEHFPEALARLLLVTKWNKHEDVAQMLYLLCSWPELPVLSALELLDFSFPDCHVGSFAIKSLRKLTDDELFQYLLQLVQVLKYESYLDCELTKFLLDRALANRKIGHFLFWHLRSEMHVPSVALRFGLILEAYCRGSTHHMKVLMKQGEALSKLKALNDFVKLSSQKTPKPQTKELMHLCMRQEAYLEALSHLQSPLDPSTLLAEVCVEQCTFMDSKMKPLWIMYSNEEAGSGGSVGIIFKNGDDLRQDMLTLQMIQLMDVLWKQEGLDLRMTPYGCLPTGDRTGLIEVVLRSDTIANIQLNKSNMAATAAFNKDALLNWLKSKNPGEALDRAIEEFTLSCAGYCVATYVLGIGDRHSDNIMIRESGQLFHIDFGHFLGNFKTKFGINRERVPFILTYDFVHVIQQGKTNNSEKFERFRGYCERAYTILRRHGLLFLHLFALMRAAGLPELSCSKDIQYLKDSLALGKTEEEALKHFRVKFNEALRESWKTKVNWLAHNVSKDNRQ
T2 sequence (P27986 whole entry partner): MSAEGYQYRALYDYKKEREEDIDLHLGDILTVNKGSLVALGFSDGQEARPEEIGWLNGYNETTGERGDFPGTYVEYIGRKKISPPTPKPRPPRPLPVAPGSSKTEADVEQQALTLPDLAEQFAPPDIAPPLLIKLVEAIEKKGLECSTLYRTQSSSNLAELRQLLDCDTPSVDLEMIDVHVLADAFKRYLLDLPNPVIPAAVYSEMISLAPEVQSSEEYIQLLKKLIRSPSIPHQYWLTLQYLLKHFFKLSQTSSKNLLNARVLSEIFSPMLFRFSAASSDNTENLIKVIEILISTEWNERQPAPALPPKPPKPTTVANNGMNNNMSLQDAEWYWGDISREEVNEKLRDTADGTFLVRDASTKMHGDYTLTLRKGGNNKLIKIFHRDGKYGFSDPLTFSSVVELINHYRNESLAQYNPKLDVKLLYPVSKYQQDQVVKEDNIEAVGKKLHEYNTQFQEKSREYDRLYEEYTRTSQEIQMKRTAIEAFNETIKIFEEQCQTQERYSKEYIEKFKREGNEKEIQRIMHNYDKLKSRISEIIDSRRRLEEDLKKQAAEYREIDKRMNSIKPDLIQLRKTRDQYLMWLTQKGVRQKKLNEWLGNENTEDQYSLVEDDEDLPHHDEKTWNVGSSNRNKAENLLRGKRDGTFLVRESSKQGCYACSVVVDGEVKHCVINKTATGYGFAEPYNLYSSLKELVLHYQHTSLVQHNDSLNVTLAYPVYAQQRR

PI3Kγ = molecular target: T3, PI3Kγ (Homo sapiens, UniProt P48736); assay: TR-FRET enzymatic activity assay, PI3Kγ; settings: Table 2a; same assay; read-out: PI3Kγ IC50
T3 construct: made in house
T3 sequence (P48736 whole entry): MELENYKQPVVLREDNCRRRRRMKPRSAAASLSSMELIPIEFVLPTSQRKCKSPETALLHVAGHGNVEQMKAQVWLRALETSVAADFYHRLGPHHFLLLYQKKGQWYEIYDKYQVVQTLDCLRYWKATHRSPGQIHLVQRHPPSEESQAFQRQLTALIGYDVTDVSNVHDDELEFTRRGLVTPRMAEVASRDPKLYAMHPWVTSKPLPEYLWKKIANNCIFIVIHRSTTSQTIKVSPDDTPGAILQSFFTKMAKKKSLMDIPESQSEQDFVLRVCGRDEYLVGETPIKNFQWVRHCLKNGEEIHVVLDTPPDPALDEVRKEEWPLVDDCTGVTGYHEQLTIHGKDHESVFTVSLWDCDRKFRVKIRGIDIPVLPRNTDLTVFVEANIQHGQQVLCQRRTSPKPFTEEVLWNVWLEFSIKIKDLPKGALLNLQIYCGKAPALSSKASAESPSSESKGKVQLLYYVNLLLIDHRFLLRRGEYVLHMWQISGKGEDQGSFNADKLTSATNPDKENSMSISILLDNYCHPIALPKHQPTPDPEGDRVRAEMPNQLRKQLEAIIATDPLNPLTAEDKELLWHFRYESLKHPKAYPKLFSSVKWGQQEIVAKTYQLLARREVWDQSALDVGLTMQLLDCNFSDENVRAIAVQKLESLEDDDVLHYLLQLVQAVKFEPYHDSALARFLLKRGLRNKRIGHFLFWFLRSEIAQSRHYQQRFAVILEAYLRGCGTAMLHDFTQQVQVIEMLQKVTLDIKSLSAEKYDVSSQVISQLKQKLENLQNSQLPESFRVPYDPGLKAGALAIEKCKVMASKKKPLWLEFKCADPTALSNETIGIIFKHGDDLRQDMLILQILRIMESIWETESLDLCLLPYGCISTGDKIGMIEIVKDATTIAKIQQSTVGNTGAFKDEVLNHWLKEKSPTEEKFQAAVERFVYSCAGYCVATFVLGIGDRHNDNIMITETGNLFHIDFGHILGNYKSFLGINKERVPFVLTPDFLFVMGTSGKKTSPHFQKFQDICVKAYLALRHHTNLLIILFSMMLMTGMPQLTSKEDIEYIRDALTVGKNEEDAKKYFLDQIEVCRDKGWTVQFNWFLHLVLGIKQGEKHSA
Summary of the method: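 Activity measured by time-resolved FRET; each isoform tested in its own enzymatic reaction.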

T1 sequence (P42338 whole entry): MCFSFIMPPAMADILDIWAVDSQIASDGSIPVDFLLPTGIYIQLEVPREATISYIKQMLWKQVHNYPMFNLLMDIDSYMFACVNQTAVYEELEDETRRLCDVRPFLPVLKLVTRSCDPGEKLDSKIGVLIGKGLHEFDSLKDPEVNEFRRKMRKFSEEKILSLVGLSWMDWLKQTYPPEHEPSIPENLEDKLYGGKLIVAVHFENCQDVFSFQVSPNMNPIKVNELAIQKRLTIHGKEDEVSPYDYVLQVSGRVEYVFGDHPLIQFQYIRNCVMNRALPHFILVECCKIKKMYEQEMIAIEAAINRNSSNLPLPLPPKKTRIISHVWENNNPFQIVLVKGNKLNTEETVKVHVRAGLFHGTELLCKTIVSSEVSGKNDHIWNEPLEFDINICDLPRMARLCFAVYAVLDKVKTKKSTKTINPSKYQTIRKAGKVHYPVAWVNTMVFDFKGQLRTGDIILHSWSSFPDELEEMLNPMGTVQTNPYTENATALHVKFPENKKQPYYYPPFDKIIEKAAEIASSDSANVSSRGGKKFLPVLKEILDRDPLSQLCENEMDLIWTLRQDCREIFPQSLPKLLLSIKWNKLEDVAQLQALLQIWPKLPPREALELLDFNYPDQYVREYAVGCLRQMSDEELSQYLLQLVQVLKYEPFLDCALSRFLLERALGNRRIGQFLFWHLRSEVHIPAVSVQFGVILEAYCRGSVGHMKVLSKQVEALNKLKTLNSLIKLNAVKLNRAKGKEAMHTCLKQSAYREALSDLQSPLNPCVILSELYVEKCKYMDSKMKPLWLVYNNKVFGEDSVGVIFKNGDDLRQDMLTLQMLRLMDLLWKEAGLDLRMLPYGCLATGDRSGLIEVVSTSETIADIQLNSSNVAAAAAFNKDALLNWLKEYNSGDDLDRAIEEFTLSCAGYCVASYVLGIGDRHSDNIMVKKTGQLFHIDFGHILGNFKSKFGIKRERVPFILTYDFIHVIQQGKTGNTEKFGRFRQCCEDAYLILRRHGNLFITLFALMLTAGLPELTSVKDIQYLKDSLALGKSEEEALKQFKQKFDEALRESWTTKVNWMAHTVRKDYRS
T1 sequence (P27986 whole entry partner): as the sequence (P27986 whole entry partner) above

With C[C@H](Nc1ncnc2scc(C#N)c12)c1nc2cccc(Cl)c2c(=O)n1-c1cc[nH]n1 [Compound 202, (S)-4-((1-(5-chloro-4-oxo-3-(1H-pyrazol-3-yl)-3,4-dihydroquinazolin-2-yl)ethyl)amino)thieno[2,3-d]pyrimidine-5-carbonitrile] the IC50 (PI3Kβ) was 62 nM, the IC50 (PI3Kδ) was 0.5 nM and the IC50 (PI3Kγ) was 14 nM.
Cc1c[nH]nc1-n1c([C@@H](Nc2nc(N)nc(C)c2C#N)C2CC2)nc2c(C#N)cccc2c1=O [Compound 203, (S)-2-(((2-amino-5-cyano-6-methylpyrimidin-4-yl)amino)(cyclopropyl)methyl)-3-(4-methyl-1H-pyrazol-3-yl)-4-oxo-3,4-dihydroquinazoline-8-carbonitrile] was tested, and the IC50 (PI3Kβ) was 37 nM, the IC50 (PI3Kδ) was 5 nM and the IC50 (PI3Kγ) was greater than 10000 nM.
Work on Cc1c[nH]nc1-n1c([C@@H](Nc2nc(N)nc(N)c2Cl)C2CC2)nc2c(C#N)cccc2c1=O [Compound 204, (S)-2-(cyclopropyl((2,6-diamino-5-chloropyrimidin-4-yl)amino)methyl)-3-(4-methyl-1H-pyrazol-3-yl)-4-oxo-3,4-dihydroquinazoline-8-carbonitrile] yielded an IC50 (PI3Kβ) of 3200 nM, an IC50 (PI3Kδ) of 310 nM and an IC50 (PI3Kγ) greater than 10000 nM.
C[C@H](Nc1nc(N)nc(N)c1C#N)c1nc2cccc(C(F)(F)F)c2c(=O)n1-c1cc[nH]n1 [Compound 205, (S)-2,4-diamino-6-((1-(4-oxo-3-(1H-pyrazol-3-yl)-5-(trifluoromethyl)-3,4-dihydroquinazolin-2-yl)ethyl)amino)pyrimidine-5-carbonitrile] showed an IC50 (PI3Kβ) of 2 nM, an IC50 (PI3Kδ) of 0.7 nM and an IC50 (PI3Kγ) of 320 nM.
With C[C@H](Nc1nc(N)nc(N)c1C#N)c1nc2cccc(C(F)(F)F)c2c(=O)n1-c1cn[nH]c1 [Compound 206, (S)-2,4-diamino-6-((1-(4-oxo-3-(1H-pyrazol-4-yl)-5-(trifluoromethyl)-3,4-dihydroquinazolin-2-yl)ethyl)amino)pyrimidine-5-carbonitrile] the IC50 (PI3Kβ) was 3 nM, the IC50 (PI3Kδ) was 2 nM and the IC50 (PI3Kγ) was 120 nM.
For N#Cc1c(N)nc(N)nc1N[C@H](c1nc2cccc(C(F)(F)F)c2c(=O)n1-c1cc[nH]n1)C1CC1 [Compound 207, (S)-2,4-diamino-6-((cyclopropyl(4-oxo-3-(1H-pyrazol-3-yl)-5-(trifluoromethyl)-3,4-dihydroquinazolin-2-yl)methyl)amino)pyrimidine-5-carbonitrile], the IC50 (PI3Kβ) was 4 nM, the IC50 (PI3Kδ) was 2 nM and the IC50 (PI3Kγ) was 640 nM.
C[C@H](Nc1nc(N)nc(N)c1Cl)c1nc2cccc(C(F)(F)F)c2c(=O)n1-c1cc[nH]n1 [Compound 208, (S)-2-(1-((2,6-diamino-5-chloropyrimidin-4-yl)amino)ethyl)-3-(1H-pyrazol-3-yl)-5-(trifluoromethyl)quinazolin-4(3H)-one] was tested, and the IC50 (PI3Kβ) was 8 nM, the IC50 (PI3Kδ) was 6 nM and the IC50 (PI3Kγ) was 4400 nM.
For C[C@H](Nc1nc(N)nc(N)c1Cl)c1nc2cccc(C(F)(F)F)c2c(=O)n1-c1cn[nH]c1 [Compound 209, (S)-2-(1-((2,6-diamino-5-chloropyrimidin-4-yl)amino)ethyl)-3-(1H-pyrazol-4-yl)-5-(trifluoromethyl)quinazolin-4(3H)-one], the IC50 (PI3Kβ) was 83 nM, the IC50 (PI3Kδ) was 16 nM and the IC50 (PI3Kγ) was 1800 nM.
In the case of Nc1nc(N)c(Cl)c(N[C@H](c2nc3cccc(C(F)(F)F)c3c(=O)n2-c2cc[nH]n2)C2CC2)n1 [Compound 210, (S)-2-(cyclopropyl((2,6-diamino-5-chloropyrimidin-4-yl)amino)methyl)-3-(1H-pyrazol-3-yl)-5-(trifluoromethyl)quinazolin-4(3H)-one], the IC50 (PI3Kβ) is reported as 37 nM, the IC50 (PI3Kδ) is reported as 19 nM and the IC50 (PI3Kγ) is reported as 6600 nM.
With C[C@H](Nc1nc(N)nc(N)c1C#N)c1nc2cccc(C(F)F)c2c(=O)n1-c1cc[nH]n1 [Compound 211, (S)-2,4-diamino-6-((1-(5-(difluoromethyl)-4-oxo-3-(1H-pyrazol-3-yl)-3,4-dihydroquinazolin-2-yl)ethyl)amino)pyrimidine-5-carbonitrile] the IC50 (PI3Kβ) was 0.6 nM, the IC50 (PI3Kδ) was 0.3 nM and the IC50 (PI3Kγ) was 82 nM.
C[C@H](Nc1nc(N)nc(N)c1C#N)c1nc2cccc(C(F)F)c2c(=O)n1-c1cn[nH]c1 [Compound 212, (S)-2,4-diamino-6-((1-(5-(difluoromethyl)-4-oxo-3-(1H-pyrazol-4-yl)-3,4-dihydroquinazolin-2-yl)ethyl)amino)pyrimidine-5-carbonitrile] was tested, and the IC50 (PI3Kβ) was 1 nM, the IC50 (PI3Kδ) was 0.7 nM and the IC50 (PI3Kγ) was 34 nM.
With C[C@H](Nc1nc(N)nc(N)c1Cl)c1nc2cccc(C(F)F)c2c(=O)n1-c1cn[nH]c1 [Compound 213, (S)-2-(1-((2,6-diamino-5-chloropyrimidin-4-yl)amino)ethyl)-5-(difluoromethyl)-3-(1H-pyrazol-4-yl)quinazolin-4(3H)-one] the IC50 (PI3Kβ) was 36 nM, the IC50 (PI3Kδ) was 5 nM and the IC50 (PI3Kγ) was 520 nM.
N#Cc1c(N)nc(N)nc1N[C@H](c1nc2cccc(C(F)F)c2c(=O)n1-c1cc[nH]n1)C1CC1 [Compound 214, (S)-2,4-diamino-6-((cyclopropyl(5-(difluoromethyl)-4-oxo-3-(1H-pyrazol-3-yl)-3,4-dihydroquinazolin-2-yl)methyl)amino)pyrimidine-5-carbonitrile] showed an IC50 (PI3Kβ) of 2 nM, an IC50 (PI3Kδ) of 0.6 nM and an IC50 (PI3Kγ) of 240 nM.
Work on Nc1nc(N)c(Cl)c(N[C@H](c2nc3cccc(C(F)F)c3c(=O)n2-c2cc[nH]n2)C2CC2)n1 [Compound 215, (S)-2-(cyclopropyl((2,6-diamino-5-chloropyrimidin-4-yl)amino)methyl)-5-(difluoromethyl)-3-(1H-pyrazol-3-yl)quinazolin-4(3H)-one] yielded an IC50 (PI3Kβ) of 10 nM, an IC50 (PI3Kδ) of 6 nM and an IC50 (PI3Kγ) of 2700 nM.
For Cc1n[nH]cc1-n1c([C@H](C)Nc2nc(N)nc(N)c2C#N)nc2cccc(Cl)c2c1=O [Compound 216, (S)-2,4-diamino-6-((1-(5-chloro-3-(3-methyl-1H-pyrazol-4-yl)-4-oxo-3,4-dihydroquinazolin-2-yl)ethyl)amino)pyrimidine-5-carbonitrile], the IC50 (PI3Kβ) was 3 nM, the IC50 (PI3Kδ) was 0.4 nM and the IC50 (PI3Kγ) was 40 nM.
Work on C[C@H](Nc1nc(N)nc(N)c1C#N)c1nc2c(Cl)ccc(Cl)c2c(=O)n1-c1cn[nH]c1 [Compound 217, (S)-2,4-diamino-6-((1-(5,8-dichloro-4-oxo-3-(1H-pyrazol-4-yl)-3,4-dihydroquinazolin-2-yl)ethyl)amino)pyrimidine-5-carbonitrile] yielded an IC50 (PI3Kβ) of 0.6 nM, an IC50 (PI3Kδ) of 0.2 nM and an IC50 (PI3Kγ) of 83 nM.
Cc1n[nH]cc1-n1c([C@H](C)Nc2nc(N)nc(N)c2Cl)nc2c(Cl)ccc(Cl)c2c1=O [Compound 218, (S)-5,8-dichloro-2-(1-((2,6-diamino-5-chloropyrimidin-4-yl)amino)ethyl)-3-(3-methyl-1H-pyrazol-4-yl)quinazolin-4(3H)-one] showed an IC50 (PI3Kβ) of 210 nM, an IC50 (PI3Kδ) of 20 nM and an IC50 (PI3Kγ) greater than 10000 nM.
Cc1n[nH]cc1-n1c([C@H](C)Nc2nc(N)nc(N)c2C#N)nc2c(Cl)ccc(Cl)c2c1=O [Compound 219, (S)-2,4-diamino-6-((1-(5,8-dichloro-3-(3-methyl-1H-pyrazol-4-yl)-4-oxo-3,4-dihydroquinazolin-2-yl)ethyl)amino)pyrimidine-5-carbonitrile] was tested, and the IC50 (PI3Kβ) was 6 nM, the IC50 (PI3Kδ) was 1 nM and the IC50 (PI3Kγ) was 420 nM.
With Cc1n[nH]cc1-n1c([C@@H](Nc2nc(N)nc(N)c2C#N)C2CC2)nc2c(Cl)cc(F)cc2c1=O [Compound 220, (S)-2,4-diamino-6-(((8-chloro-6-fluoro-3-(3-methyl-1H-pyrazol-4-yl)-4-oxo-3,4-dihydroquinazolin-2-yl)(cyclopropyl)methyl)amino)pyrimidine-5-carbonitrile] the IC50 (PI3Kβ) was 42 nM, the IC50 (PI3Kδ) was 7 nM and the IC50 (PI3Kγ) was 2200 nM.
Cc1n[nH]cc1-n1c([C@@H](Nc2nc(N)nc(N)c2Cl)C2CC2)nc2c(Cl)cc(F)cc2c1=O [Compound 221, (S)-8-chloro-2-(cyclopropyl((2,6-diamino-5-chloropyrimidin-4-yl)amino)methyl)-6-fluoro-3-(3-methyl-1H-pyrazol-4-yl)quinazolin-4(3H)-one] showed an IC50 (PI3Kβ) of 1100 nM, an IC50 (PI3Kδ) of 180 nM and an IC50 (PI3Kγ) greater than 10000 nM.
Cc1ccc(Cl)c2nc([C@H](C)Nc3nc(N)nc(N)c3C#N)n(-c3cc[nH]n3)c(=O)c12 [Compound 222, (S)-2,4-diamino-6-((1-(8-chloro-5-methyl-4-oxo-3-(1H-pyrazol-3-yl)-3,4-dihydroquinazolin-2-yl)ethyl)amino)pyrimidine-5-carbonitrile] gave an IC50 (PI3Kβ) of 0.6 nM, an IC50 (PI3Kδ) of 0.2 nM and an IC50 (PI3Kγ) of 360 nM.
Work on Cc1ccc(Cl)c2nc([C@H](C)Nc3nc(N)nc(N)c3Cl)n(-c3cc[nH]n3)c(=O)c12 [Compound 223, (S)-8-chloro-2-(1-((2,6-diamino-5-chloropyrimidin-4-yl)amino)ethyl)-5-methyl-3-(1H-pyrazol-3-yl)quinazolin-4(3H)-one] yielded an IC50 (PI3Kβ) of 3 nM, an IC50 (PI3Kδ) of 3 nM and an IC50 (PI3Kγ) of 9400 nM.
Cc1ccc(Cl)c2nc([C@H](C)Nc3nc(N)nc(C(F)F)c3C#N)n(-c3cc[nH]n3)c(=O)c12 [Compound 224, (S)-2-amino-4-((1-(8-chloro-5-methyl-4-oxo-3-(1H-pyrazol-3-yl)-3,4-dihydroquinazolin-2-yl)ethyl)amino)-6-(difluoromethyl)pyrimidine-5-carbonitrile] showed an IC50 (PI3Kβ) of 5 nM, an IC50 (PI3Kδ) of 2 nM and an IC50 (PI3Kγ) of 2100 nM.
Work on C[C@H](Nc1nc(N)nc(C(F)F)c1Cl)c1nc2cccc(Cl)c2c(=O)n1-c1cc[nH]n1 [Compound 225, (S)-2-(1-((2-amino-5-chloro-6-(difluoromethyl)pyrimidin-4-yl)amino)ethyl)-5-chloro-3-(1H-pyrazol-3-yl)quinazolin-4(3H)-one] yielded an IC50 (PI3Kβ) of 537 nM, an IC50 (PI3Kδ) of 300 nM and an IC50 (PI3Kγ) greater than 10000 nM.
Work on C[C@H](Nc1nc(N)nc(C(F)F)c1Cl)c1nc2c(Cl)cc(F)cc2c(=O)n1-c1cc[nH]n1 [Compound 226, (S)-2-(1-((2-amino-5-chloro-6-(difluoromethyl)pyrimidin-4-yl)amino)ethyl)-8-chloro-6-fluoro-3-(1H-pyrazol-3-yl)quinazolin-4(3H)-one] yielded an IC50 (PI3Kβ) of 628 nM, an IC50 (PI3Kδ) of 270 nM and an IC50 (PI3Kγ) greater than 10000 nM.
